Tests used:
Assay type in all cases: functional
[1] = system: Mus musculus; assay: Antiinflammatory activity in mouse assessed as inhibition of TPA-induced ear edema at 400 nmol
[2] = system: Mus musculus; assay: Antiinflammatory activity in mouse assessed as inhibition of TPA-induced ear edema at 560 nmol
[3] = system: Mus musculus; assay: Antiinflammatory activity in mouse assessed as inhibition of TPA-induced ear edema at 430 nmol

| Structure (SMILES) | inhibition (INH) [1] [%] | other results |
| --- | --- | --- |
| C=C(CC[C@@H](C)[C@H]1CC[C@@]2(C)C3=C(C[C@H](O)[C@]12C)[C@@]1(C)CC[C@@H](OC(=O)CC(C)(O)CC(=O)OC)C(C)(C)[C@@H]1CC3)[C@H](C)C(=O)O (some centres not stated) | 75 | – |
| COc1ccc2c(c1)c(CC(=O)O)c(C)n2C(=O)c1ccc(Cl)cc1 [INDOMETHACIN] | – | inhibition (INH) [2]: 16% |
| C=C(CC[C@@H](C)[C@H]1CC[C@@]2(C)C3=C(C[C@H](O)[C@]12C)[C@@]1(C)CC[C@@H](OC(=O)C[C@](C)(O)CC(=O)OC)C(C)(C)[C@@H]1CC3)[C@H](C)C(=O)O | 86 | – |
| C=C(CC[C@@H](C(=O)O)[C@H]1[C@H](O)C[C@@]2(C)C3=CC[C@H]4C(C)(C)C(=O)CC[C@]4(C)C3=CC[C@]12C)C(C)C [POLYPORENIC ACID B] | 49 | – |
| C=C(CC[C@@H](C)[C@H]1CC[C@@]2(C)C3=C(C[C@H](O)[C@]12C)[C@@]1(C)CC[C@@H](O)C(C)(C)[C@@H]1CC3)[C@H](C)C(=O)O [POLYPORENIC ACID A] | 64 | – |
| CC1(C)[C@@H](O)CC[C@]2(C)[C@H]3C(=O)C=C4[C@@H]5C[C@@](C)(C(=O)O)CC[C@]5(C)CC[C@@]4(C)[C@]3(C)CC[C@@H]12 [ENOXOLONE] | – | inhibition (INH) [3]: 24% |
| C=C(CC[C@@H](C)[C@H]1CC[C@@]2(C)C3=C(C[C@H](O)[C@]12C)[C@@]1(C)CC[C@@H](OC(=O)CC(=O)O)C(C)(C)[C@@H]1CC3)[C@H](C)C(=O)O | 65 | – |
